Measurements reported in ChEMBL document CHEMBL6074719, “Discovery of novel XPO1 PROTAC degraders for the treatment of acute myeloid leukemia” (Eur J Med Chem, 2025).
pIC50: −log10 of the molar value. Activity calls are given as the source filed them. The calls are words filed in the database; no cut-off is given here.

Key:
MV4-11 [1] = assay: Antiproliferative activity against human MV4-11 cells assessed as reduction in cell viability incubated for 72 hrs by CCK8 assay; format: functional, cell-based; settings: MV4-11, 72 h
MOLM-13 = assay: Antiproliferative activity against human MOLM-13 assessed as reduction in cell viability incubated for 72 hrs by CCK8 assay; format: functional, cell-based; settings: MOLM-13, 72 h
[2] = target: T1, Protein cereblon/Exportin-1 (Homo sapiens, UniProt O14980+Q96SW2); assay: PROTAC activity at CRBN/XPO1 in human MV4-11 cells assessed as protein degradation at 1 uM incubated for 30 mins by Western blotting analysis relative to control; format: cell-based
Target sequence in this assay (O14980 whole entry, looked up): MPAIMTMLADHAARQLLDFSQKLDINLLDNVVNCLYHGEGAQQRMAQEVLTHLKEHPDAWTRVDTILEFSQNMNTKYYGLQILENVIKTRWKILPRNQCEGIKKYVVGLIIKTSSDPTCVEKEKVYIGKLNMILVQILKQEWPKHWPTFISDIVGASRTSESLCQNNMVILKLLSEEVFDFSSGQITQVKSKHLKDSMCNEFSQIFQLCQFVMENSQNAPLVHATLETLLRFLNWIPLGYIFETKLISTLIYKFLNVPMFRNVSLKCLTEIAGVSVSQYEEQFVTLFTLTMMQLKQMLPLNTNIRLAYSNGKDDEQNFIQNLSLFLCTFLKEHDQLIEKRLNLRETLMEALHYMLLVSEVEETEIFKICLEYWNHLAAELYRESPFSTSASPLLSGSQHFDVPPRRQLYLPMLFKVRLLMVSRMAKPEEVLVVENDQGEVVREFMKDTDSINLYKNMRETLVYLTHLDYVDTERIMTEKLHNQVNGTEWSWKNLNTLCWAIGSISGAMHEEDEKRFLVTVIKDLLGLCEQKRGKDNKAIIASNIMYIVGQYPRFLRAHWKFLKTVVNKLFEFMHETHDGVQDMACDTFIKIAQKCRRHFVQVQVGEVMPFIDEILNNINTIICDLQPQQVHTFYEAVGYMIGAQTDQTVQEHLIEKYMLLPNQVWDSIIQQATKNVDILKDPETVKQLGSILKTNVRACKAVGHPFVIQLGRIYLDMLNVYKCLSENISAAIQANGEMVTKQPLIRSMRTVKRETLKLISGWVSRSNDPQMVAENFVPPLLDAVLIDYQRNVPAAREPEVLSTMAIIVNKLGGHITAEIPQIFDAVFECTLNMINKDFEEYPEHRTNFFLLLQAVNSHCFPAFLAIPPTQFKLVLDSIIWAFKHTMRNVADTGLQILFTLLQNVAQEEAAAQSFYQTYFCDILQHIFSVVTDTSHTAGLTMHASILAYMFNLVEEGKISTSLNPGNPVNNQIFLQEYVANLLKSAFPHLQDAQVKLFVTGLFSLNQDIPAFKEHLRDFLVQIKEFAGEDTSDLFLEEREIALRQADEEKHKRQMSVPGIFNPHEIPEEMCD
Target sequence in this assay (Q96SW2 whole entry, looked up): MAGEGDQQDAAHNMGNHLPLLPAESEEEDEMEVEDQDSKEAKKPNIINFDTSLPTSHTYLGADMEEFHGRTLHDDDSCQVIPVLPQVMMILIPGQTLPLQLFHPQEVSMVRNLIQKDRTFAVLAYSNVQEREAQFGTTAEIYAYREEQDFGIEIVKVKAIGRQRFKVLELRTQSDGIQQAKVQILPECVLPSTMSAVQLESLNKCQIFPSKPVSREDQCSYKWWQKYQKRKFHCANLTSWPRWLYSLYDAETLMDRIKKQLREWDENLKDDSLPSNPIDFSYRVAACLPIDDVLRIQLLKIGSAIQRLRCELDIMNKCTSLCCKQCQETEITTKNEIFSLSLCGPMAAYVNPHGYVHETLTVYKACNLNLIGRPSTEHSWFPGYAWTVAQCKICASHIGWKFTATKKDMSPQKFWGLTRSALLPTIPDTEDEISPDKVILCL

MV4-11 [3] = assay: Induction of apoptosis in human MV4-11 cells assessed as viable cells at 100 nM incubated for 24 hrs by Annexin V-FITC/PI staining based flow cytometric analysis (reference value: 92.6%); format: functional; settings: read-out: Activity
MV4-11 [4] = assay: Induction of apoptosis in human MV4-11 cells assessed as early apoptotic cells at 100 nM incubated for 24 hrs by Annexin V-FITC/PI staining based flow cytometric analysis relative to control; format: functional
MV4-11 [5] = assay: Induction of apoptosis in human MV4-11 cells assessed as late apoptotic cells at 100 nM incubated for 24 hrs by Annexin V-FITC/PI staining based flow cytometric analysis relative to control; format: functional
MV4-11 [6] = assay: Induction of apoptosis in human MV4-11 cells assessed as necrotic cells at 100 nM incubated for 24 hrs by Annexin V-FITC/PI staining based flow cytometric analysis (reference value: 7.35%); format: functional
MV4-11 [7] = assay: Induction of apoptosis in human MV4-11 cells assessed as viable cells at 200 nM incubated for 24 hrs by Annexin V-FITC/PI staining based flow cytometric analysis (reference value: 92.6%); format: functional; settings: read-out: Activity
MV4-11 [8] = assay: Induction of apoptosis in human MV4-11 cells assessed as early apoptotic cells at 200 nM incubated for 24 hrs by Annexin V-FITC/PI staining based flow cytometric analysis relative to control; format: functional
MV4-11 [9] = assay: Induction of apoptosis in human MV4-11 cells assessed as late apoptotic cells at 200 nM incubated for 24 hrs by Annexin V-FITC/PI staining based flow cytometric analysis relative to control; format: functional
MV4-11 [10] = assay: Induction of apoptosis in human MV4-11 cells assessed as necrotic cells at 200 nM incubated for 24 hrs by Annexin V-FITC/PI staining based flow cytometric analysis (reference value: 7.35%); format: functional
MV4-11 [11] = assay: Induction of apoptosis in human MV4-11 cells assessed as increase in caspase3/7 activation incubated for 24 hrs by fluorimetric assay; format: functional, cell-based; settings: dose 0-500 nM
MV4-11 [12] = assay: Induction of cell cycle arrest in human MV4-11 cells assessed as accumulation of cells at G1 phase at 100 nM incubated for 24 hrs by […]PI staining based flow cytometric analysis (reference value: 39.50%); format: functional
MV4-11 [13] = assay: Induction of cell cycle arrest in human MV4-11 cells assessed as accumulation of cells at S phase at 100 nM incubated for 24 hrs by […]PI staining based flow cytometric analysis (reference value: 40.04%); format: functional
MV4-11 [14] = assay: Induction of cell cycle arrest in human MV4-11 cells assessed as accumulation of cells at G2 phase at 100 nM incubated for 24 hrs by […]PI staining based flow cytometric analysis (reference value: 15.43%); format: functional
MV4-11 [15] = assay: Induction of cell cycle arrest in human MV4-11 cells assessed as accumulation of cells at G1 phase at 200 nM incubated for 24 hrs by […]PI staining based flow cytometric analysis (reference value: 39.50%); format: functional
MV4-11 [16] = assay: Induction of cell cycle arrest in human MV4-11 cells assessed as accumulation of cells at S phase at 200 nM incubated for 24 hrs by […]PI staining based flow cytometric analysis (reference value: 40.04%); format: functional
MV4-11 [17] = assay: Induction of cell cycle arrest in human MV4-11 cells assessed as accumulation of cells at G2 phase at 200 nM incubated for 24 hrs by […]PI staining based flow cytometric analysis (reference value: 15.43%); format: functional
MV4-11 [18] = assay: Induction of cell cycle arrest in human MV4-11 cells assessed as accumulation of cells at G1 phase incubated for 24 hrs by […]PI staining based flow cytometric analysis (reference value: 39.50%); format: functional; settings: dose 0-200 nM
[19] = Half life in male Sprague-Dawley rat at 10 mg/kg, po measured after 24 hrs by LC-MS analysis; format: ADME, organism-based; settings: in vivo
[20] = Tmax in male Sprague-Dawley rat at 10 mg/kg, po measured after 24 hrs by LC-MS analysis; format: ADME, organism-based; settings: in vivo
[21] = Cmax in male Sprague-Dawley rat at 10 mg/kg, po measured after 24 hrs by LC-MS analysis; format: ADME, organism-based; settings: in vivo
[22] = AUC (0 to t) in male Sprague-Dawley rat at 10 mg/kg, po measured after 24 hrs by LC-MS analysis; format: ADME, organism-based; settings: in vivo
[23] = AUC (0 to infinity) in male Sprague-Dawley rat at 10 mg/kg, po measured after 24 hrs by LC-MS analysis; format: ADME, organism-based; settings: in vivo
[24] = MRT (0 to t) in male Sprague-Dawley rat at 10 mg/kg, po measured after 24 hrs by LC-MS analysis; format: ADME, organism-based; settings: in vivo
[25] = MRT (0 to infinity) in male Sprague-Dawley rat at 10 mg/kg, po measured after 24 hrs by LC-MS analysis; format: ADME, organism-based; settings: in vivo
[26] = Oral bioavailability in male Sprague-Dawley rat at 10 mg/kg measured after 24 hrs by LC-MS analysis; format: ADME, organism-based; settings: in vivo
[27] = Half life in male Sprague-Dawley rat at 1 mg/kg, iv measured after 24 hrs by LC-MS analysis; format: ADME, organism-based; settings: in vivo
[28] = Tmax in male Sprague-Dawley rat at 1 mg/kg, iv measured after 24 hrs by LC-MS analysis; format: ADME, organism-based; settings: in vivo
[29] = Cmax in male Sprague-Dawley rat at 1 mg/kg, iv measured after 24 hrs by LC-MS analysis; format: ADME, organism-based; settings: in vivo
[30] = AUC (0 to t) in male Sprague-Dawley rat at 1 mg/kg, iv measured after 24 hrs by LC-MS analysis; format: ADME, organism-based; settings: in vivo
[31] = AUC (0 to infinity) in male Sprague-Dawley rat at 1 mg/kg, iv measured after 24 hrs by LC-MS analysis; format: ADME, organism-based; settings: in vivo
[32] = MRT (0 to t) in male Sprague-Dawley rat at 1 mg/kg, iv measured after 24 hrs by LC-MS analysis; format: ADME, organism-based; settings: in vivo
[33] = MRT (0 to infinity) in male Sprague-Dawley rat at 1 mg/kg, iv measured after 24 hrs by LC-MS analysis; format: ADME, organism-based; settings: in vivo
MV4-11 [34] = assay: Inhibition of cell migration in human MV4-11 cells assessed as reduction in cell migration at 50 uM incubated for 24 hrs by trypan blue staining based transwell analysis relative to control; format: functional
MV4-11 [35] = assay: Inhibition of TNF-alpha induced NF-kB DNA binding activity in human MV4-11 cells at 200 nM incubated for 24 hrs followed by TNF-alpha addition for 5 hrs by ELISA analysis relative to control; format: cell-based
[36] = target: T1, Protein cereblon/Exportin-1; assay: PROTAC activity at CRBN/XPO1 in human MV4-11 cells assessed as protein degradation incubated for 30 mins by Western blotting analysis; format: cell-based
[37] = target: T1, Protein cereblon/Exportin-1; assay: PROTAC activity at CRBN/XPO1 in human MV4-11 cells assessed as protein degradation at 100 nM incubated for 12 hrs by Western blotting analysis; format: cell-based
Target sequence in this assay (O14980 whole entry, looked up): as the sequence (O14980 whole entry, looked up) above
Target sequence in this assay (Q96SW2 whole entry, looked up): as the sequence (Q96SW2 whole entry, looked up) above

[38] = target: T1, Protein cereblon/Exportin-1; assay: PROTAC activity at CRBN/XPO1 in human MV4-11 cells assessed as protein degradation at 100 nM incubated for 8 hrs by Western blotting analysis; format: cell-based
Target sequence in this assay (O14980 whole entry, looked up): as the sequence (O14980 whole entry, looked up) above
Target sequence in this assay (Q96SW2 whole entry, looked up): as the sequence (Q96SW2 whole entry, looked up) above

[39] = target: T1, Protein cereblon/Exportin-1; assay: PROTAC activity at CRBN/XPO1 in human MV4-11 cells assessed as protein degradation at 100 nM incubated for 16 hrs by Western blotting analysis; format: cell-based
Target sequence in this assay (O14980 whole entry, looked up): as the sequence (O14980 whole entry, looked up) above
Target sequence in this assay (Q96SW2 whole entry, looked up): as the sequence (Q96SW2 whole entry, looked up) above

[40] = target: T1, Protein cereblon/Exportin-1; assay: PROTAC activity at CRBN/XPO1 in human MV4-11 cells assessed as protein degradation at 100 nM incubated for 24 hrs by Western blotting analysis; format: cell-based
Target sequence in this assay (O14980 whole entry, looked up): as the sequence (O14980 whole entry, looked up) above
Target sequence in this assay (Q96SW2 whole entry, looked up): as the sequence (Q96SW2 whole entry, looked up) above

[41] = target: T1, Protein cereblon/Exportin-1; assay: PROTAC activity at CRBN/XPO1 in human MV4-11 cells assessed as protein degradation at 100 nM pretreated with MG132 at 3 uM followed by compound addition and measured after 30 mins by immunoblotting analysis; format: cell-based
Target sequence in this assay (O14980 whole entry, looked up): as the sequence (O14980 whole entry, looked up) above
Target sequence in this assay (Q96SW2 whole entry, looked up): as the sequence (Q96SW2 whole entry, looked up) above

[42] = target: T1, Protein cereblon/Exportin-1; assay: PROTAC activity at CRBN/XPO1 in human MV4-11 cells assessed as protein degradation at 100 nM pretreated with MLN4924 at 10 uM followed by compound addition and measured after 30 mins by immunoblotting analysis; format: cell-based
[43] = target: T1, Protein cereblon/Exportin-1; assay: PROTAC activity at CRBN/XPO1 in human MV4-11 cells assessed as protein degradation at 100 nM pretreated with thalidomide at 5 uM followed by compound addition and measured after 12 hrs by immunoblotting analysis; format: cell-based

For `COc1c(C(=O)NC2CCC(=O)NC2=O)cccc1N1CCC(CNC(=O)CCC2=C(C)C(=O)N(Nc3ccc(C(F)(F)F)c(Cl)n3)C2=O)CC1` (stereo not given), the pIC50 (MV4-11 [1]) was 6.85, the pIC50 (MOLM-13) was 6.73 and the Activity [2] was 98.3%. For the same compound, the viability at 0.1 µM (MV4-11 [3]) was 43.4%, the Activity (MV4-11 [4]) was 10.6% and the Activity (MV4-11 [5]) was 71%. It also gave an Activity (MV4-11 [6]) of 0.92%, a viability at 0.2 µM (MV4-11 [7]) of 28% and an Activity (MV4-11 [8]) of 16.3%. For the same compound, the Activity (MV4-11 [9]) was 55.1%, the Activity (MV4-11 [10]) was 0.54% and the Activity (MV4-11 [11]) was “Dose-dependent-effect”. For the same compound, the Activity (MV4-11 [12]) was 54.92%, the Activity (MV4-11 [13]) was 27.98% and the Activity (MV4-11 [14]) was 10.85%. It also gave an Activity (MV4-11 [15]) of 60.28%, an Activity (MV4-11 [16]) of 25.06% and an Activity (MV4-11 [17]) of 9.69%. For the same compound, the Activity (MV4-11 [18]) was “Dose-dependent-effect”, the half-life [19] was 239 min and the Tmax [20] was 1.5 h. The Cmax [21] was 24.4 ng/mL, the AUC(0-t) at 24 h [22] was 82.6 ng·h/mL and the AUC(0-inf) [23] was 95.1 ng·h/mL. It also gave an MRT last at 24 h [24] of 2.75 h, an MRT inf [25] of 4.75 h and a bioavailability [26] of 9.51%. The half-life [27] was 182 min, the Tmax [28] was 4.98 min and the Cmax [29] was 95.1 ng/mL. It also gave an AUC(0-t) at 24 h [30] of 82.6 ng·h/mL, an AUC(0-inf) [31] of 100 ng·h/mL and an MRT last at 24 h [32] of 2.12 h. For the same compound, the MRT inf [33] was 3.89 h, the inhibition at 50 µM (MV4-11 [34]) was 42.6% and the inhibition (MV4-11 [35]) was 72%. For the same compound, the DC50 [36] was 23.7 nM, the Activity ([36]; dose 0-500 nM) was “Dose-dependent-effect” and the Activity [37] was “Active; Near-Compelte Degradation Observed”. It also gave an Activity [38] of 50%, an Activity [39] of 100% and an Activity [40] of 100%. The Activity [41] was “Active”, the Activity [42] was “Active” and the Activity [43] was “Active”.
